Laboratory results published in PubChem BioAssay AID1845228.
Where “and” joins values, the source holds several entries; their conditions need not be identical. Equal entries are not always repeated. Numbered stars: 1 amine (or outer) side, 2 acyl side, 3 side chain; on linkers, the order of the positions; unused ones are H or OH. Bridge positions count the residues as written; N and C are the ends. Square brackets hold non-standard residues; d marks the D form. Peptide text beside a SMILES is read from it. I, II: the chains in the order shown. Actinocin(9to1) = Cc1c2oc3c(C)ccc(C(=O)[*:1])c3nc-2c(C(=O)[*:2])c(N)c1=O; NMeV = CN[C@H](C(=O)O)C(C)C; Sar = CNCC(=O)O

settings: pampa; 60.0 min; 50.0 µM

Structure (SMILES)	Papp
COCCn1cnc2c(c(-c3ccccc3)c(-c3ccccc3)n2CCc2ccccc2)c1=N	116 ×10⁻⁶ cm/s
N#Cc1ccc(C(=O)Nc2ccc(Cl)c(-c3nc4ncccc4o3)c2)c(F)c1	160 ×10⁻⁶ cm/s
CNc1oc(-c2cccc(Cl)c2Cl)nc1C#N	124 ×10⁻⁶ cm/s
O=C(O)c1cc2ccccc2c(Cc2c(O)c(C(=O)O)cc3ccccc23)c1O	3 ×10⁻⁶ cm/s
N=c1c2c(-c3ccccc3)c(-c3ccccc3)n(Cc3ccccc3)c2ncn1CCCCCO	203 ×10⁻⁶ cm/s
Cc1ccc(-c2c(C(=O)CCl)n(CCCO)c3ncnc(N)c23)cc1	76 ×10⁻⁶ cm/s
COc1cc2nc(N3CCC(N4CCCCC4)CC3)nc(NC3CCCCCC3)c2cc1OC	116 ×10⁻⁶ cm/s
Nc1ncnc2c1ncn2CCNCCCCCO	< 1 ×10⁻⁶ cm/s
CO/N=C(\C(=O)N[C@@H]1C(=O)N2C(C(=O)O)=C(C[N+]3(C)CCCC3)CS[C@H]12)c1csc(N)n1	< 1 ×10⁻⁶ cm/s
CNC(=O)c1cc(Oc2ccc(NC(=O)Nc3cc(C(C)(C)C)nn3-c3ccc4ncccc4c3)c(F)c2)ccn1	210 ×10⁻⁶ cm/s
COc1ccc(S(=O)(=O)Nc2cccnc2Nc2ccc(O)cc2)cc1	13 ×10⁻⁶ cm/s
COc1ccccc1NC(=O)C1=C(C)Nc2c(C(=O)Nc3ccc(F)cc3)cnn2C1c1ccc(Cl)cc1 (centres undefined)	< 1 ×10⁻⁶ cm/s
N=c1c2c(-c3ccccc3)c(-c3ccccc3)n(CCc3ccccc3)c2ncn1[C@H](CO)Cc1ccccc1	< 1 ×10⁻⁶ cm/s
CC[C@@]1(O)C(=O)OCc2c1cc1n(c2=O)Cc2cc3ccccc3nc2-1	23 ×10⁻⁶ cm/s
CC(C)CNc1ccnc(NCc2csc(-c3ccccc3)n2)n1	228 ×10⁻⁶ cm/s
COCCNC(=O)c1ccc(-c2ncc3cnc(-c4cccc(F)c4)cn23)cc1	95 ×10⁻⁶ cm/s
CCCCCCCCCC(=O)O[C@H]1CC[C@H]2[C@@H]3CCC4=CC(=O)CC[C@@H]4[C@H]3CC[C@]12C	< 1 ×10⁻⁶ cm/s
CC(C)N(C[C@H]1O[C@@H](n2cnc3c(N)ncnc32)[C@H](O)[C@@H]1O)C1CC(CCc2nc3ccc(C(C)(C)C)cc3[nH]2)C1 (some centres undefined)	< 1 ×10⁻⁶ cm/s
Cc1ccccc1CN1CCn2c(nn(CC3COc4ccccc4O3)c2=O)C1=O (centres undefined)	57.7 ×10⁻⁶ cm/s
COc1ccc(CCn2cnc3c(c(-c4ccccc4)c(-c4ccccc4)n3Cc3ccccc3)c2=N)cc1OC	287 ×10⁻⁶ cm/s
N=c1c2c(-c3ccccc3)c(-c3ccccc3)n(Cc3ccccc3)c2ncn1C1CCN(Cc2ccccc2)CC1	233 ×10⁻⁶ cm/s
O=C(Cc1cccs1)NC1C(=O)N2C(C(=O)[O-])=C(C[n+]3ccccc3)CSC12 (centres undefined)	< 1 ×10⁻⁶ cm/s
NCC1(CC(=O)O)CCCCC1	< 1 ×10⁻⁶ cm/s
O=C(NCCCO)c1ccc(-c2ncc3cnc(-c4cccc(F)c4)cn23)cc1	46 ×10⁻⁶ cm/s
COC(Cn1cnc2c(c(-c3ccccc3)c(-c3ccccc3)n2Cc2ccccc2)c1=N)OC	189 ×10⁻⁶ cm/s

Structure (SMILES)	Papp
O=C(CCCN1CCC(O)(c2ccc(Cl)cc2)CC1)c1ccc(F)cc1	217 ×10⁻⁶ cm/s
Cn1nnnc1SCC1=C(C(=O)O)N2C(=O)[C@H](NC(=O)C(O)c3ccccc3)C2SC1 (some centres undefined)	< 1 ×10⁻⁶ cm/s
Cc1ccccc1NC(=O)Nc1ccc(CC(=O)N(C)[C@@H](CC(C)C)C(=O)NCC[C@H](NC(=O)[C@@H]2CCCN2S(=O)(=O)c2cc(Cl)cc(Cl)c2)C(=O)O)cc1	5 ×10⁻⁶ cm/s
N#Cc1cccc(-c2nc(-c3cccnc3)no2)c1	150 ×10⁻⁶ cm/s
CC[n+]1c(-c2ccccc2)c2cc(N)ccc2c2ccc(N)cc21	2 ×10⁻⁶ cm/s
Cc1ccc(NC(=O)c2ccc(CN3CCNCC3)cc2)cc1Nc1nccc(-c2cccnc2)n1	19 ×10⁻⁶ cm/s
Cc1ccc(NC(=O)c2ccc(CN3CCN(C)CC3)cc2)cc1Nc1nc(-c2cccnc2)cs1	100 ×10⁻⁶ cm/s
[O-][n+]1cccc(/C(Cl)=N/OC[C@@H](O)CN2CCCCC2)c1	2 ×10⁻⁶ cm/s
COc1ccc(-c2noc(CC(=O)O)c2-c2ccc(OC)cc2)cc1	< 1 ×10⁻⁶ cm/s
Cc1cccc(-c2csc3ncnc(Sc4nnnn4C)c23)c1	225 ×10⁻⁶ cm/s
N=c1c2c(-c3ccccc3)cn(Cc3ccccc3)c2ncn1C(CO)(CO)CO	> 300 ×10⁻⁶ cm/s
CN1N=C2CCN(C(=O)[C@H](COCc3ccccc3)NC(=O)C(C)(C)N)C[C@]2(Cc2ccccc2)C1=O	15 ×10⁻⁶ cm/s
O=C1Nc2ccc(C(=O)c3ccco3)cc2/C1=C/c1cc(Cl)c(O)c(Cl)c1	38 ×10⁻⁶ cm/s
Cc1c2oc3c(C)ccc(C(=O)N[C@@H]4C(=O)N[C@H](C(C)C)C(=O)N5CCC[C@H]5C(=O)N(C)CC(=O)N(C)[C@@H](C(C)C)C(=O)O[C@@H]4C)c3nc-2c(C(=O)N[C@@H]2C(=O)N[C@H](C(C)C)C(=O)N3CCC[C@H]3C(=O)N(C)CC(=O)N(C)[C@@H](C(C)C)C(=O)O[C@@H]2C)c(N)c1=O (I: T[dV]P[Sar][NMeV] / II: T[dV]P[Sar][NMeV]; ester I:1-I:C, II:1-II:C; linker I:N-II:N via Actinocin(9to1))	6 ×10⁻⁶ cm/s and 13 ×10⁻⁶ cm/s
CC(C)C[C@H](CO)Nc1nc(S[C@@H](C)c2ccccc2)nc2nc(N)sc12	244 ×10⁻⁶ cm/s
CC=CC1=C(C(=O)O)N2C(=O)[C@@H](NC(=O)[C@H](N)c3ccc(O)cc3)[C@H]2SC1	282 ×10⁻⁶ cm/s
CNCCCOc1cc(F)c(-c2c(Cl)nc3ncnn3c2N[C@@H](C)C(F)(F)F)c(F)c1	26 ×10⁻⁶ cm/s
CC1=C(C(=O)O)N2C(=O)C(NC(=O)C(N)C3=CCC=CC3)C2SC1 (centres undefined)	< 1 ×10⁻⁶ cm/s
Cc1ccc(-c2csc3ncnc(Sc4nnnn4C)c23)cc1	> 300 ×10⁻⁶ cm/s
CCCN(CCC)C1CCc2ccc(O)cc2C1 (centres undefined)	26 ×10⁻⁶ cm/s
CC(NC(CCc1ccccc1)C(=O)O)C(=O)N1C(=O)N(C)CC1C(=O)O (centres undefined)	< 1 ×10⁻⁶ cm/s
COCC1=C(C(=O)O)N2C(=O)[C@@H](NC(=O)/C(=N\OC)c3csc(N)n3)[C@H]2SC1	< 1 ×10⁻⁶ cm/s
COC(=O)c1ccccc1O[C@@H]1O[C@H](CO[C@@H]2OC[C@@H](O)[C@H](O)[C@H]2O)[C@@H](O)[C@H](O)[C@H]1O	< 1 ×10⁻⁶ cm/s
O=C(NCCCN1CCCC1=O)c1ccc(-c2ncc3cnc(-c4ccccc4)cn23)cc1	31 ×10⁻⁶ cm/s
